Test results from the CheMixHub viscosity set.

Test: xn = mol fraction of the nth substance listed

C=CCC[n+]1ccn(CC)c1.[Br-] + O
viscosity [mPa·s], 101.33 kPa
Settings | x1 = 0.001149 | x1 = 0.001784 | x1 = 0.003604 | x1 = 0.005391 | x1 = 0.007164 | x1 = 0.008843
293.15 K | 1.038 | 1.055 | 1.095 | 1.132 | 1.168 | 1.206
298.15 K | 0.922 | 0.936 | 0.971 | 1.003 | 1.034 | 1.067
303.15 K | 0.825 | 0.837 | 0.867 | 0.895 | 0.924 | 0.95
308.15 K | 0.743 | 0.754 | 0.781 | 0.806 | 0.831 | 0.854
313.15 K | 0.674 | 0.684 | 0.708 | 0.73 | 0.753 | 0.772

CC(C)CO + O
Settings | viscosity [mPa·s]
293.15 K, 101.33 kPa, x1 = 0.0049 | 1.124
293.15 K, 101.33 kPa, x1 = 0.01 | 1.222
293.15 K, 101.33 kPa, x1 = 0.015 | 1.332
293.15 K, 101.33 kPa, x1 = 0.021 | 1.453
298 K, 101 kPa, x2 = 0.2 | 3.148
298 K, 101 kPa, x2 = 0.4 | 3.209
299 K, 101 kPa, x2 = 0.1 | 3.13
299 K, 101 kPa, x2 = 0.45 | 3.156
300 K, 101 kPa, x2 = 0.3 | 2.95
303 K, 101 kPa, x1 = 0.01 | 0.931
303 K, 101 kPa, x2 = 0.1 | 2.753
303 K, 101 kPa, x2 = 0.2 | 2.679
303 K, 101 kPa, x2 = 0.3 | 2.676
303 K, 101 kPa, x2 = 0.4 | 2.719
303 K, 101 kPa, x2 = 0.45 | 2.761
303.15 K, 101.33 kPa, x1 = 0.0049 | 0.899
303.15 K, 101.33 kPa, x1 = 0.01 | 0.967
303.15 K, 101.33 kPa, x1 = 0.015 | 1.04
303.15 K, 101.33 kPa, x1 = 0.021 | 1.119
313 K, 101 kPa, x1 = 0.01 | 0.7483
313 K, 101 kPa, x2 = 0.1 | 2.041
313 K, 101 kPa, x2 = 0.2 | 1.985
313 K, 101 kPa, x2 = 0.3 | 1.976
313 K, 101 kPa, x2 = 0.4 | 2.002
313 K, 101 kPa, x2 = 0.45 | 2.025
313.15 K, 101.33 kPa, x1 = 0.0049 | 0.721
313.15 K, 101.33 kPa, x1 = 0.01 | 0.767
313.15 K, 101.33 kPa, x1 = 0.015 | 0.815
323 K, 101 kPa, x1 = 0.01 | 0.6161
323 K, 101 kPa, x2 = 0.1 | 1.55
323 K, 101 kPa, x2 = 0.2 | 1.51
323 K, 101 kPa, x2 = 0.3 | 1.502
323 K, 101 kPa, x2 = 0.4 | 1.517
323 K, 101 kPa, x2 = 0.45 | 1.531
323.15 K, 101.33 kPa, x1 = 0.0049 | 0.604
323.15 K, 101.33 kPa, x1 = 0.01 | 0.642
323.15 K, 101.33 kPa, x1 = 0.015 | 0.675

CCCCCOC(C)=O + O
303.15 K, 101.3 kPa
Settings | viscosity [mPa·s]
x2 = 0.0121 | 0.796
x2 = 0.0385 | 0.801
x2 = 0.0645 | 0.805
x2 = 0.0655 | 0.805
x2 = 0.0854 | 0.809

Cc1nc(C)n(C)c1C + O
viscosity [mPa·s], 100 kPa
Settings | x1 = 0.0159 | x1 = 0.035 | x1 = 0.0585 | x1 = 0.0882 | x1 = 0.127
298.15 K | 1.258 | 1.817 | 2.65 | 3.86 | 5.77
303.15 K | 1.125 | 1.61 | 2.31 | 3.35 | 4.91
313.15 K | 0.899 | 1.244 | 1.733 | 2.53 | 3.36
323.15 K | 0.756 | 0.998 | 1.344 | 1.806 | 2.44

O=C1CCCN1C1CCCCC1 + O
298.15 K, 100 kPa
Settings | viscosity [mPa·s]
x1 = 0.01 | 1.219
x1 = 0.0196 | 1.621
x1 = 0.0303 | 2.139
x1 = 0.0392 | 2.582
x1 = 0.0484 | 3.059
x1 = 0.0565 | 3.503
x1 = 0.0683 | 4.138
x1 = 0.079 | 4.749
x1 = 0.0878 | 5.762
x1 = 0.0982 | 5.739
x1 = 0.2023 | 10.42
x1 = 0.2989 | 12.86
x1 = 0.3988 | 13.62
x1 = 0.498 | 13.33
x1 = 0.5984 | 12.65
x1 = 0.7063 | 11.87
x1 = 0.7985 | 11.27
x1 = 0.8996 | 10.76
x1 = 0.9093 | 10.71
x1 = 0.9161 | 10.68
x1 = 0.928 | 10.65
x1 = 0.9365 | 10.61
x1 = 0.9461 | 10.58
x1 = 0.9574 | 10.52
x1 = 0.9675 | 10.5
x1 = 0.9784 | 10.46
x2 = 0.0112 | 10.41

O=C1OCCO1 + O
298.15 K, 101 kPa
Settings | viscosity [mPa·s]
x1 = 0.0166 | 0.955
x1 = 0.0221 | 0.968
x1 = 0.0415 | 1.038
x1 = 0.0635 | 1.096
x1 = 0.0897 | 1.172
x1 = 0.1194 | 1.253
x1 = 0.1403 | 1.309
x1 = 0.1625 | 1.377
x1 = 0.2345 | 1.519
x1 = 0.3229 | 1.647
x1 = 0.3784 | 1.704
x1 = 0.4412 | 1.751
x1 = 0.5409 | 1.831
x1 = 0.6443 | 1.898

CC1CCCO1 (centres undefined) + O=C1CCCC1
298.15 K, 101 kPa
Settings | viscosity [mPa·s]
x1 = 0.0212 | 1.103
x1 = 0.0637 | 1.061
x1 = 0.1277 | 1.001
x1 = 0.1917 | 0.944
x1 = 0.2563 | 0.89
x1 = 0.3212 | 0.84
x1 = 0.3856 | 0.792
x1 = 0.4507 | 0.747
x1 = 0.5157 | 0.705
x1 = 0.5812 | 0.665
x1 = 0.6466 | 0.628
x1 = 0.7069 | 0.596
x1 = 0.7785 | 0.56
x1 = 0.8445 | 0.529
x1 = 0.9107 | 0.5
x1 = 0.9775 | 0.472
